Data reported in US9139575B2, “Broad spectrum antiviral and antiparasitic agents” (priority 2010, dated 2015).
Where two headings read alike, the source gives them in different places.

Tests used:
HIV = experiment: Inhibition of HIV infection (Table 1); format: cell-based, human immunodeficiency virus
HSV = experiment: Inhibition of HSV infection (Table 1); format: cell-based, herpes simplex virus; conditions: for IC50: read-out: IC50 ± STD (nM) (N = x) HSV
NDV = experiment: microbe, parasite or virus in culture; format: cell-based, Newcastle disease virus; conditions: for IC50: read-out: IC50 ± STD (nM) (N = x) NDV
[1] = Absorption spectra of compounds in DMSO; format: physicochemical; conditions: for Abs Max: 100 μM in DMSO; for Relative integrated area from 400 to 700 nm: area under absorption curve, JL001 = 100
Hela cells = experiment: Cytotoxicity by MTT assay in dark or under light; format: cell-based; conditions: Homo sapiens, exposed for 1 hour to light, MTT 24 hours later, read-out: concentration triggering death of 50% of treated cells
lipid-enveloped viruses [2] = experiment: organism not typed; format: cell-based; conditions: read-out: IC50 inhibition of infection of lipid-enveloped viruses
[3] = system: cytomegalovirus (CMV, herpesvirus); format: cell-based
[4] = system: Semliki forest virus (SFV, alphavirus); format: cell-based
[5] = Clinical observations after single dose in PK study; conditions: for toxicity in vivo compared to the rhodanine derivatives: gavage, intravenous or intraperitoneal administration in mice
[6] = Pharmacokinetic profile after single po, ip or iv administration; conditions: for bioavailability: female, Balb/c, mouse, plasma
[7] = KT rate constant (Table 1); format: physicochemical; conditions: values are KT × 10^−7
Toxoplasma gondii = Toxoplasma gondii attachment and invasion of HFFs; format: cell-based; conditions: 10 μM, normalized to DMSO control, preliminary
HIV (IIIB) = experiment: HIV inactivation in packed red blood cells, TZM-BL luciferase readout; format: cell-based, human immunodeficiency virus; conditions: 100 μM, 1 h white light, hematocrit 80%
lipid-enveloped viruses [8] = conditions: reference [1], cited from earlier work
[9] = number of experiments in parentheses
[10] = Human immunodeficiency virus 1, number of experiments in parentheses, read-out: IC50 ± STD (nM) (N = x) HIV

## CCN1C(=O)S/C(=C\c2ccc(-c3ccccc3)o2)C1=O [JL025, reference compound]
HIV; [9]
  IC50 ± STD (nM) (N = x) HIV: Not active (4)
HSV; [9]
  IC50 ± STD (nM) (N = x) HSV: Not active (1)
NDV
  IC50 ± STD (nM) (N = x) NDV: Not active (2)
[1]
  Abs Max: 405 nm

## CCN1C(=O)/C(=C/c2ccc(-c3ccccc3)o2)OC1=S [JL101, (Z)-3-ethyl-5-((5-phenylfuran-2-yl)methylene)-2-thioxooxazolidine-4-one]
HIV; [10]
  IC50: > 1000 nM
NDV; avian paramyxovirus 1, Vero
  IC50: > 1000 nM

## CCN1C(=S)O/C(=C\c2ccc(-c3ccccc3)o2)C1=S [JL102, (Z)-3-ethyl-5-((5-phenylfuran-2-yl)methylene)oxazolidine-2,4-dithione]
NDV
  EC50 fold lower than LJ001's: about 10 fold
Hela cells
  EC50: ~400 nM
lipid-enveloped viruses [2]
  IC50: ~40 nM
[3]
  inhibition of CMV infection: inhibit the infection
[4]
  inhibition of SFV infection: inhibit the infection
[5]; 10 mg/kg ip single dose
  clinical observations: appeared normal
[5]
  toxicity in vivo compared to the rhodanine derivatives: less toxicity
[6]; ip, 10 mg/kg
  bioavailability: ~50%
[6]; po, 100 mg/kg
  bioavailability: 3.1 to 105%

## CCN1C(=S)O/C(=C\c2ccc(-c3ccccc3OC)o2)C1=S [JL103, (Z)-3-ethyl-5-((5-(2-methoxyphenyl)furan-2-yl)methylene)oxazolidine-2,4-dithione]
HIV; [10]
  IC50: 3 nM
HSV; [9]
  IC50: 2.3 ± 2.7 nM
NDV
  EC50 fold lower than compound 1's: about 10 fold
NDV; avian paramyxovirus 1, Vero, read-out: EC90 antiviral activity on NDV
  EC90: ~15 nM
NDV; avian paramyxovirus 1, Vero
  IC50: 7 nM
[1]
  absorption peak: about 500 nm
  Abs Max: 516 nm
  Relative integrated area from 400 to 700 nm: 153
[1]; times more than LJ001
  light absorbed relative to LJ001 (integrated area 400-700 nm): 1.53 times
[7]
  KT × 10^−7: 7.8 ± 0.6 M^−1s^−1
lipid-enveloped viruses [2]
  IC50: ~5 nM
[3]
  inhibition of CMV infection: inhibit the infection
[4]
  inhibition of SFV infection: inhibit the infection
Toxoplasma gondii
  inhibition of parasite attachment and invasion: inhibited parasite attachment and invasion
[5]; 10 mg/kg ip single dose
  clinical observations: appeared normal
[5]
  toxicity in vivo compared to the rhodanine derivatives: less toxicity
[6]; ip, 10 mg/kg
  bioavailability: ~50%
[6]; po, 100 mg/kg
  bioavailability: 3.1 to 105%

## CCN1C(=O)/C(=C/c2ccc(-c3ccccc3)o2)NC1=S [JL104, (Z)-3-ethyl-5-((5-phenylfuran-2-yl)methylene)-2-thioxoimidazolidin-4-one]
HIV; [9]
  IC50 ± STD (nM) (N = x) HIV: Not active
HSV; [9]
  IC50: > 500000 nM
NDV; avian paramyxovirus 1, Vero
  IC50: > 500000 nM

## CCN1C(=S)N/C(=C\c2ccc(-c3ccccc3)o2)C1=S [JL105, (Z)-3-ethyl-5-((5-phenylfuran-2-yl)methylene)imidazolidine-2,4-dithione]
NDV; avian paramyxovirus 1, Vero
  IC50: > 100000 nM
[1]
  Abs Max: 521 nm

## CCN1C(=S)OC(Cc2ccc(-c3ccccc3)o2)C1=S (stereo not shown) [JL107]
NDV; avian paramyxovirus 1, Vero
  IC50: 928 nM
Toxoplasma gondii
  inhibition of parasite attachment and invasion: most potent inhibition
Toxoplasma gondii; listed as 107
  inhibition of parasite attachment and invasion: inhibited parasite attachment and invasion

## CCN1C(=S)O/C(=C\c2ccc(-c3c(OC)cccc3OC)o2)C1=S [JL111, (Z)-3-Ethyl-5-(5-(2,6-dimethoxyphenyl)-furan-2-ylmethylene)oxazolidine-2,4-dithione]
NDV; avian paramyxovirus 1, Vero
  IC50: 12 nM
[1]
  Abs Max: 499 nm

## CCN1C(=S)O/C(=C\c2cc3ccccc3o2)C1=S [JL113, (Z)-5-(benzofuran-2-ylmethylene)-3-ethyloxazolidine-2,4-dithione]
NDV; avian paramyxovirus 1, Vero
  IC50: 865 nM

## CCN1C(=S)O/C(=C\c2ccc(-c3cccc(OC)c3)o2)C1=S [JL117, (Z)-3-Ethyl-5-(5-(3-methoxyphenyl)-furan-2-ylmethylene)oxazolidine-2,4-dithione]
HSV; [9]
  IC50: 20 nM
NDV; avian paramyxovirus 1, Vero
  IC50: 5 nM
[1]
  Abs Max: 504 nm

## CCN1C(=S)O/C(=C\c2ccc(-c3ccc(OC)cc3)n2C)C1=S [JL119, (Z)-3-Ethyl-5-((5-(4-methoxyphenyl)-1-methyl-1H-pyrrole-2-yl)methylene)oxazolidine-2,4-dithione]
NDV; avian paramyxovirus 1, Vero
  IC50: 6 nM
[1]
  Abs Max: 551 nm

## CCN1C(=O)O/C(=C\c2ccc(-c3ccccc3)o2)C1=O [JL121, (Z)-3-ethyl-5-((5-phenylfuran-2-yl)methylene)oxazolidine-2,4-dione]
HSV; [9]
  IC50 ± STD (nM) (N = x) HSV: Not active (1)
NDV; avian paramyxovirus 1, Vero
  IC50: > 500000 nM
[7]
  KT × 10^−7: 2.5 ± 0.2 M^−1s^−1

## CCN1C(=S)O/C(=C\c2ccc(-c3c(OC)cc(OC)cc3OC)o2)C1=S [JL122, (Z)-3-Ethyl-5-(5-(2,4,6-tiimethoxyphenyl)-furan-2-ylmethylene)oxazolidine-2,4-dithione]
HSV; [9]
  IC50: 3 ± 1 nM
NDV; avian paramyxovirus 1, Vero
  IC50: 1 nM
[1]
  Abs Max: 547 nm
HIV (IIIB)
  HIV inactivation in packed RBC (luciferase activity, RLU): dramatically decrease the luciferase activity to near-background levels

## CCN1C(=S)O/C(=C\c2ccc(-c3ccc(N(C)C)cc3)n2C)C1=S [JL123]
HSV; [9]
  IC50: 75 ± 45 nM
NDV; avian paramyxovirus 1, Vero
  IC50: 49 nM
[1]
  Abs Max: 593 nm

## C=CCN1C(=O)/C(=C/c2ccc(-c3ccccc3)o2)SC1=S [LJ001, reference compound]
HIV; Human immunodeficiency virus 1, read-out: IC50 ± STD (nM) (N = x) HIV
  IC50: 183 ± 272 nM
HSV
  IC50: 35 ± 48 nM
NDV; avian paramyxovirus 1, Vero
  IC50: 207 nM
[1]
  absorption peak: about 440 nm
  Abs Max: 457 nm
  Relative integrated area from 400 to 700 nm: 100
[7]
  KT × 10^−7: 1.0 ± 0.1 M^−1s^−1
HIV (IIIB)
  HIV inactivation in packed RBC (luciferase activity, RLU): unable to inactivate HIV
Toxoplasma gondii
  inhibition of parasite attachment and invasion: highly effective
lipid-enveloped viruses [8]
  IC95 viral infection common for all viruses tested: ~10000 nM
lipid-enveloped viruses [8]; read-out: IC50 viral infection common for all viruses tested
  IC50: ~1000 nM
[5]; 5 mg/kg ip single dose
  clinical observations: appeared normal
[5]; 10 mg/kg ip single dose
  clinical observations: 2 were sacrificed in moribund condition and 1 was found dead
[6]; 10 mg/kg iv, 5 mg/kg ip, 10 and 100 mg/kg po
  exposure: minimal exposure
[6]; mice, single dose
  elimination: ~700 mL/min/kg
  half-life: 12 min

## Cc1c(C)c2c(c(C)c1O)CC[C@@](C)(CCC[C@H](C)CCC[C@H](C)CCCC(C)C)O2 [alpha-tocopherol, reference compound]
NDV
  effect of antioxidant on antiviral activity of JL103: blocks the antiviral activity
